What was measured:
[1] = target: human plasma kallikrein (Homo sapiens (Human), UniProt P03952); experiment: Plasma kallikrein activity assay (chromogenic substrate S2302); assay type: biochemical; conditions: 2 nM kallikrein, 80 μM S2302, 30° C., pH 7.8; Cheng-Prusoff; reported as ranges
Procedure: Plasma kallikrein activity assay. The effect of compounds of the invention on human plasma kallikrein activity was determined using the chromogenic substrates (DiaPharma Group, Inc., West Chester, Ohio, USA). In these experiments, 2 nM kallikrein (Enzyme Research Laboratories, South Bend, Ind., USA) was incubated with 80 μM S2302 (H-D-Pro-Phe-Arg-p-nitroaniline) in the absence or presence of increasing concentrations of compounds of the invention in a final volume of 200 μL Tris-HCl buffer (200 mM NaCl; 2.5 mM CaCl2; 50 mM Tris-HCl, pH 7.8).
Data were analyzed using SigmaPlot software (Systat Software, Inc., San Jose, Calif., USA) (Four Parameter Logistic Curve).

[2] = test system: patients with hereditary angioedema (HAE); conditions: in vivo; cited from earlier work

Sequence of human plasma kallikrein (P03952 whole entry, looked up): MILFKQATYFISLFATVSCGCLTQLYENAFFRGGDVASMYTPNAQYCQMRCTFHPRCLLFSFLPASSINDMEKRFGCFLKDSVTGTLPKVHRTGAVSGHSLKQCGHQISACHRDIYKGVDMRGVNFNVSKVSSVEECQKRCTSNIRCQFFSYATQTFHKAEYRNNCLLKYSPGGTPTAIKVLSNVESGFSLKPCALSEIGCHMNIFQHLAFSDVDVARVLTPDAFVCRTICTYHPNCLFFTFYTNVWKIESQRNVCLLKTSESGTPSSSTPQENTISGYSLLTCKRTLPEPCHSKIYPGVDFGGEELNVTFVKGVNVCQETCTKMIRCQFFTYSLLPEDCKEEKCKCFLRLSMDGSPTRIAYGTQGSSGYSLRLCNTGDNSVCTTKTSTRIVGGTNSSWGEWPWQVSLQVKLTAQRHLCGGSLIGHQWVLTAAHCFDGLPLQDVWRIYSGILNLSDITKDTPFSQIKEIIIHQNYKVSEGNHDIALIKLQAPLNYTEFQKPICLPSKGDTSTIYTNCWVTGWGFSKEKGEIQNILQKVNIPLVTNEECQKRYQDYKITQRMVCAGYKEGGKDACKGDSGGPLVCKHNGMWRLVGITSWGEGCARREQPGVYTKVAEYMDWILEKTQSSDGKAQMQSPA
Sequence of human plasma kallikrein (P03952 whole entry partner, looked up): as the sequence (P03952 whole entry, looked up) above

| SMILES | Ki [1] [nM] | treating HAE [2] |
| --- | --- | --- |
| Cc1cc(C(=O)Nc2cccc(C(NCC3CC3)c3cc(O)ccc3O)c2)n(-c2cccc(CN)c2)n1 (centres unmarked) [Compound 146g, 1-(3-(Aminomethyl)phenyl)-N-(3-((cyclopropylmethylamino)(2,5-dihydroxyphenyl)methyl)phenyl)-3-methyl-1H-pyrazole-5-carboxamide] | 0.1 to 50 | – |
| NC(N)=NCCC[C@@H](N)C(=O)N[C@@H](CCCN=C(N)N)C(=O)N1CCC[C@H]1C(=O)N1C[C@H](O)C[C@H]1C(=O)NCC(=O)N[C@@H](Cc1cccs1)C(=O)N[C@@H](CO)C(=O)N1Cc2ccccc2C[C@@H]1C(=O)N1[C@H](C(=O)N[C@@H](CCCN=C(N)N)C(=O)O)C[C@@H]2CCCC[C@@H]21 [Icatibant] | – | effective |

Reference: patent publication US11230530B2, “Human plasma kallikrein inhibitors” (BioCryst Pharmaceuticals, Inc., priority 2014, dated 2022)
